These are literature values, as cited in patent publication US6391342B1, “Pharmaceutical formulation comprising a 2- [(2-pyridinyl) methyl] sulfinyl benzimidazole having anti-ulcer activity and a process for the preparation of such formulation” (A/S GEA Farmaceutisk Fabrik, priority 1998, dated 2002).

Molecules are shown by their SMILES. Where two headings read alike, the source gives them in different places.

For the compound `COc1ccc2[nH]c([S+]([O-])Cc3ncc(C)c(OC)c3C)nc2c1` (stereo not drawn) [omeprazole, 5-methoxy-2-[[(4-methoxy-3,5-dimethyl-2-pyridinyl)methyl]sulfinyl]-1H-benzimidazole], under “acids”, the stability to acids entry is “sensible to acids”. Further, the solubility entry runs as follows: (in alkaline solutions) “very soluble”; (in water) “only slightly soluble”.
